Source: patent US5162328A, “N-[3-[2-(1H-imidazol-1-yl)ethoxy]phenyl]-4-(2-thienyl)-2-pyrimidinamine and pharmacologically acceptable salts” (American Cyanamid Company, priority 1991, dated 1992)
Values joined by “and” are separate entries in the source; they are usually repeats but may differ in a detail not shown here. Identical values can stand only once.

Key:
[1] = tested on: immunologically stimulated human basophils; assay: Inhibition of histamine release from immunologically stimulated human basophils; assay type: cell-based; details: Homo sapiens
Description: The bronchospasm of allergic asthma is a consequence of the release of mediators, such as histamine and slow-reacting substances from mast cells. The role of mediator release in the induction of an asthmatic attack has been fully reviewed and documented; see […]. and Austen, K. F., Bronchial Asthma Mechanisms and Therapeutics, E. B. Weiss, Editor, Little, Brown and Company, Boston, 163, (1976); Lichtenstein, L. M., Asthma-Physiology, Immunopharmacology and Treatment, Second International Symposium, L. M. Lichtenstein and K. F. Austen, Editors, Academic Press, New York, 51, (1979); and Bell, S. C., et al., Annular Reports in Medicinal Chemistry, 14, 51, H. J. Hess, Editor, Academic Press, New York, (1979). The novel compounds of this invention have been tested by the procedure of Lichtenstein, L. M. and Osler, A. G., J. Exp. […] Dissolve 140.3 g of sodium chloride, 7.45 g of Trizma-Tris Pre-Set, Reagent Grade, pH 7.6 at 25° C. (Sigma Chemical Co.) in sufficient water to give a final volume of 2 liters. (Sigma chemical Co.) (30 mg/ml) Made to 0.075M and 0.5M respectively, with calcium chloride dihydrate and magnesium chloride hexahydrate. A 10 ml portion of 10× Tris Buffer and 1.0 ml of human albumin are diluted to 100 ml with water. A 10 ml portion of 10× Tris Buffer, 1.0 ml of human albumin, 0.8 ml of calcium stock and 0.2 ml of magnesium stock are diluted to 100 ml with water. Behring Diagnostics (Generally used at 10 μg protein/ml final concentration). Strength 1:100 (w:v) allergenic extract, Hollister-Stier Labs. Generally this is diluted 1:1000 to 1:10,000 (considering the vial as stock). Interdermal solutions or intramuscular preparations for hyposensitization, Hollister-Stier Labs. The final concentrations used are on the order of 1 PNU/ml. Using four 20 ml heparinized tubes, […] of blood are withdrawn from subjects with known histamine release to anti-IgE, ragweed antigen or other specific allergen. These 80 ml of blood are mixed with 20 ml of saline containing 0.6 g of dextrose and 1.2 g of dextran. The blood is allowed to sediment at room temperature in two 50 ml polycarbonate centrifuge tubes until a sharp interface develops between the red cells and plasma (60-90 minutes). The plasma, containing the leukocytes, (top) layer from each tube, is withdrawn by pipet and transferred to 50 ml polycarbonate tubes. The plasma is centrifuged for 8 minutes at 110× G at 4° C. The supernatant is carefully poured off as completely as possible and the cell button is resuspended in 2-3 ml of Tris-A buffer using a siliconized Pasteur pipet. The resuspension is accomplished by drawing the liquid gently in an out of the pipet, with the tip below the liquid until an even suspension of cells is obtained. […]

[2] = tested on: passive cutaneous anaphylaxis lesions in the rat; assay: Rat Passive Cutaneous Anaphylaxis Assay (PCA); assay type: in vivo, rat (male Wistar strain); details: for Lesion Area (Low IgE): IgE 25 ng/site; for Lesion Area (Low IgE) / Lesion Area (High IgE): mean ± SD; for Lesion Area (High IgE): IgE 50 ng/site
Protocol: Solutions made by dissolving 0.50 g in 100 ml of normal saline. Mouse monoclonal IgE (ICN Biochemicals) clone SPE-7 directed against DNP is subdivided into 50 ul aliquots and stored at -70° C. DNP-ovalbumin is made by reacting DNP sulfonic acid with ovalbumin dissolved in saline overnight at room temperature. The resulting solution is dialyzed extensively at 4 C to remove unreacted DNPsulfonic acid and stored as 1 mL aliquots of 100 mg/ml at -70° C. Male Wistar strain rats, certified viral free, weighing 250-300 g are obtained from Hilltop Laboratory Animals and housed, in accordance with AALAC standards, on site for at least one week before use. Forty-eight hours before challenge the rats are shaved on the dorsal surfaces and returned to the cages. Twenty-four hours before challenge the rats are given intradermal injections of 0.1 mL, one on each flank, of saline containing IgE at concentrations ranging from 1000 to 250 ng/mL. These injections give a local dose of 100 to 25 ng IgE. The IgE binds to specific receptors on mast cells in the skin. […] To the Evan's blue dye is added sufficient DNP-ovalbumin to make a 1 mg/ml solution. This allergen containing dye is injected intravenously via a tail vein into the rats at 10 ml/Kg. The Evans' blue binds to plasma albumin and remains in the vascular space under conditions of normal capillary permeability. The allergen, which can diffuse into the extravascular space, binds to the IgE on the surface of the cutaneous mast cells and initiates the immediate hypersensitivity response which leads to the release of histamine by intracellular granules of the mast cell. The histamine causes an increase in capillary permeability which allows plasma proteins including the dye tagged albumin to diffuse into the extracellular space resulting in a blue spot in the skin. The size of the lesion is proportional to the amounts of mediators released. This process reaches an optimum in 30 minutes. Thirty minutes after challenge the rats are euthanized by CO2. The skin is reflected from the back and the lesion areas estimated as the product of the largest diameter of the bluespot and the diameter perpendicular to it. A compound which is a mediator release inhibitor will reduce the spot area. The effectiveness of the compounds is determined by Analysis of Variance of the lesion areas grouped by IgE dose and compound. Compounds are considered active at the P<0.05 level. Table II contains the results of the experiments expressed as the areas of the lesions in mm^2. The control lesions for these experiments are also listed. Because more than one compound at a time is tested, some of the control values are repeated in the table. Table III contains the data expressed as a % of the appropriate control.

[3] = 2.0 mg/kg PO 2 hrs, hydrochloride

Cl.c1cc(Nc2nccc(-c3cccs3)n2)cc(OCCn2ccnc2)c1 [Compound 1, N-[3-[2-(1H-Imidazol-1-yl)ethoxy]phenyl]-4-(2-thienyl)-2-pyrimidinamine hydrochloride]
IC50 [1]: 100 ± 10 nM | Lesion Area (Low IgE) ([2]; 0.125 mg/kg PO 2 hrs): 87 ± 16 mm^2 | Lesion Area (High IgE) ([2]; 0.125 mg/kg PO 2 hrs): 132 ± 20 mm^2 | Lesion Area (Low IgE) ([2]; 0.25 mg/kg PO 2 hrs): 92 ± 13 mm^2 | Lesion Area (High IgE) ([2]; 0.25 mg/kg PO 2 hrs): 127 ± 19 mm^2 | Lesion Area (High IgE) ([2]; 1.0 mg/kg PO 2 hrs, hydrochloride): 115 ± 14 mm^2 and 100 ± 20 mm^2 and 129 ± 26 mm^2 | Lesion Area (Low IgE) ([2]; 1.5 mg/kg PO 2 hrs): 56 ± 22 mm^2 | Lesion Area (High IgE) ([2]; 1.5 mg/kg PO 2 hrs): 128 ± 43 mm^2 | % CONTROL (lesion area) ([2]; 1.5 mg/kg PO @ 2 hrs): 41.8% | Lesion Area (Low IgE) [2, 3]: 71 ± 20 mm^2 and 76 ± 14 mm^2 | Lesion Area (High IgE) [2, 3]: 103 ± 5 mm^2 and 119 ± 19 mm^2 | % CONTROL (lesion area) ([2]; 2 mg/kg PO @ 2 hrs, hydrochloride): 56.8% and 43.3% | Lesion Area (Low IgE) ([2]; 2.5 mg/kg PO 2 hrs): 8 ± 15 mm^2 | Lesion Area (High IgE) ([2]; 2.5 mg/kg PO 2 hrs): 17 ± 30 mm^2 | % CONTROL (lesion area) ([2]; 2.5 mg/kg PO @ 2 hrs): 15.0%
